Test [1] deals with T1, Endothelin-1 receptor (Sus scrofa, UniProt Q29010).
T1 sequence (Q29010 whole entry): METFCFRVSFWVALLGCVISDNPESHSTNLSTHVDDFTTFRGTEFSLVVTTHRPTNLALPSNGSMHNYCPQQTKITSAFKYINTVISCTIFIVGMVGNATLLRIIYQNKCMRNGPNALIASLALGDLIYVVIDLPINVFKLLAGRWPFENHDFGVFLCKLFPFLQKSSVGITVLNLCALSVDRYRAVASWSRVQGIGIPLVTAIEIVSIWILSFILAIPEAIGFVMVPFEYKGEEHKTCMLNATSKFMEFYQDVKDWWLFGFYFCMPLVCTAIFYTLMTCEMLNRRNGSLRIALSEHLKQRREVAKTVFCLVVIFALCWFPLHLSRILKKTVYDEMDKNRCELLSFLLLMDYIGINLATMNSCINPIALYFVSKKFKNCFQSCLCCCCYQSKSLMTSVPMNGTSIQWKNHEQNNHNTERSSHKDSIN
Briefly: Compound was evaluated for the binding affinity towards Endothelin A receptor in porcine aortic membranes. Type of test: cell membranes.

Test [2] addresses T2, Endothelin-1 receptor (Rattus norvegicus, UniProt P26684).
T2 sequence (P26684 whole entry): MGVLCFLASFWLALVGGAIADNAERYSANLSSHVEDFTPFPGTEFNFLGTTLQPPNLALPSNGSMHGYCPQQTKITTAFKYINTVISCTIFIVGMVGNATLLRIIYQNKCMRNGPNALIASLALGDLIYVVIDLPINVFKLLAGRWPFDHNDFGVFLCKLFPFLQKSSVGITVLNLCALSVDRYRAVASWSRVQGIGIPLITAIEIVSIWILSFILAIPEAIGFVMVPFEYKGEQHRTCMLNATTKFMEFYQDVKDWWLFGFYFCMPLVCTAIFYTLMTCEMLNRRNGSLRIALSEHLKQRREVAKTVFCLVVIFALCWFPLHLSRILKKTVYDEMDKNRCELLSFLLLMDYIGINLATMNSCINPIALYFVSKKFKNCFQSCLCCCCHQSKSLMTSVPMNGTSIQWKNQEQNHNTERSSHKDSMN
Briefly: Compound was evaluated for the binding affinity to Endothelin A receptor in the rat atrium. The class given is tissue-based, Cardiac atrium.

In test [3] the target is T2, Endothelin-1 receptor. Briefly: Compound was evaluated for the binding affinity to Endothelin A receptor in the rat aorta. The class given is tissue-based.
Test [4] has as its target T3, Endothelin receptor type B (Rattus norvegicus, UniProt P21451).
T3 sequence (P21451 whole entry): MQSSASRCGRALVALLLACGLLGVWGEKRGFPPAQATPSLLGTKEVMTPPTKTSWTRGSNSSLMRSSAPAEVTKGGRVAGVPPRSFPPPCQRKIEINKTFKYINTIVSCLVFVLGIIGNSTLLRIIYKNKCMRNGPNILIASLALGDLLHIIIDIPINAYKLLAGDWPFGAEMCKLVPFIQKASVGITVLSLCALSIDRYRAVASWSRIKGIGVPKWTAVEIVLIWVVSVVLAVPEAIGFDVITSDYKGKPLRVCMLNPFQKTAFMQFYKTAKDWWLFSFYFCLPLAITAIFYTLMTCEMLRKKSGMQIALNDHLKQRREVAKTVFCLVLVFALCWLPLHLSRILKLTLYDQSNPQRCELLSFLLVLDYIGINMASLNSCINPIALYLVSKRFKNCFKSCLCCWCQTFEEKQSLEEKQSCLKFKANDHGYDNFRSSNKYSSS
As to the kind of experiment: Compound was evaluated for the binding affinity to Endothelin B receptor in the rat hippocampus. The class given is tissue-based.

Test [5] concerns the target T3, Endothelin receptor type B. As to the kind of experiment: Compound was evaluated for the binding affinity to Endothelin B receptor in the rat cerebellum. Type of test: tissue-based.
Test [6] has as its target T4, Endothelin receptor, ET-A/ET-B (Homo sapiens, UniProt P24530+P25101).
T4 sequence (P24530 whole entry): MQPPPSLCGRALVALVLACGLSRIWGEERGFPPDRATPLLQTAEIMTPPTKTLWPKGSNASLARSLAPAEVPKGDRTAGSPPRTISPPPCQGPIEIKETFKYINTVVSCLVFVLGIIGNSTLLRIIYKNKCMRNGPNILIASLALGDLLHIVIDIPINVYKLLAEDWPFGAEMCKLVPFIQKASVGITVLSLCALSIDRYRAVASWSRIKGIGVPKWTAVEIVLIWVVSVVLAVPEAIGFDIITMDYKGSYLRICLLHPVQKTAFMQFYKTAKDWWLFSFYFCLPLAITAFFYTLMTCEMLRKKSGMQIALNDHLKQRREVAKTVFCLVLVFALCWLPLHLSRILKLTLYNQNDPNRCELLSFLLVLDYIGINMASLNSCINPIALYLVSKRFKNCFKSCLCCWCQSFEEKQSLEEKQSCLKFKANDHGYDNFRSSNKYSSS
T4 sequence (P25101 whole entry): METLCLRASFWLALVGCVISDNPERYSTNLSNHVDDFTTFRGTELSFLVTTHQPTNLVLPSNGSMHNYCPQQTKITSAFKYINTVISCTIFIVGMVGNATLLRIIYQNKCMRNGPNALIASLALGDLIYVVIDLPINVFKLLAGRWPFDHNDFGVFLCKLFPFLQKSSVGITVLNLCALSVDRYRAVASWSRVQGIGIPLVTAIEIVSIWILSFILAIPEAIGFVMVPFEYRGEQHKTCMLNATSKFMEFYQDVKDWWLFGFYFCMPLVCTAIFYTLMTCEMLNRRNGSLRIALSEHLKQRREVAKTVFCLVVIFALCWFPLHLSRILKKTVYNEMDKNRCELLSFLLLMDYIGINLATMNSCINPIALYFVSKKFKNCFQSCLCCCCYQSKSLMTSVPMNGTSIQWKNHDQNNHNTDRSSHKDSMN
Briefly: Compound was evaluated for the Inhibition of the contractile response of Endothelin A receptor in rabbit thoracic aorta. The class given is functional, tissue-based, Oryctolagus cuniculus. As to conditions: target entry is the homologue from another species.

For a further test, the species on record is Rattus norvegicus. As to the kind of experiment: Compound was evaluated for the Inositol phosphate accumulation in rat skin fibroblasts. The class given is functional.
The target in test [7] is T1, Endothelin-1 receptor. Briefly: Compound was evaluated for the binding affinity to Endothelin A receptor in the porcine aortic smooth muscle.

Positions of bridges follow the written chain, without caps; N, C: chain ends. Non-standard residues stand in square brackets, D forms with d. Residues, ends and D or L forms follow the SMILES beside them. Bounds are passed on as bounds.

Regarding `CC(C)C[C@H](NC(=O)N1CCCCCC1)C(=O)N(C)[C@H](Cc1c[nH]c2ccccc12)C(=O)N[C@H](Cc1ccccn1)C(=O)N(C)CC(=O)O`, the IC50 (in general, the concentration needed to halve the response being measured) on Endothelin-1 receptor [1] stood at 7600 nM. That is a single-digit micromolar value.
Still for that read-out and setting: to `CNC(=O)[C@H](Cc1ccccn1)NC(=O)[C@@H](Cc1c[nH]c2ccccc12)N(C)C(=O)[C@@H](CC(=O)N1CCCCCC1)CC(C)C` belongs 7600 nM; to `CC(C)C[C@H](NC(=O)N1CCCCCC1)C(=O)N(C)[C@H](Cc1c[nH]c2ccccc12)C(=O)N[C@H](Cc1ccccn1)C(=O)N[C@@H](Cc1ccccc1)C(=O)O`, 21000 nM; to `CC(C)C[C@H](NC(=O)N1CCCCCC1)C(=O)N(C)[C@H](Cc1c[nH]c2ccccc12)C(=O)N[C@H](Cc1ccccn1)C(=O)O`, 2500 nM.
Same read-out and setting: to `CC(C)C[C@H](NC(=O)Cc1ccccc1Cl)C(=O)N(C)[C@H](Cc1c[nH]c2ccccc12)C(=O)N[C@H](CC(C)C)C(=O)O` belongs 32000 nM.
Consider `CC[C@H](C)[C@H](NC(=O)[C@@H](NC(=O)[C@H](CC(=O)O)NC(=O)[C@H](CCC(N)=O)NC(=O)[C@H](Cc1cnc[nH]1)NC(=O)[C@@H]1CSSC[C@H](N)C(=O)N[C@@H]([C@@H](C)O)C(=O)N[C@H]2CSSC[C@H](NC(=O)[C@H](CCC(=O)O)NC(=O)[C@H](CCC(=O)O)NC(=O)[C@H](CC(=O)O)NC(=O)[C@H]([C@@H](C)O)NC(=O)[C@H](CCSC)NC(=O)[C@H](CC(=O)O)NC(=O)[C@H](CC(N)=O)NC2=O)C(=O)N[C@@H](CC(C)C)C(=O)N[C@@H](CC(N)=O)C(=O)N[C@@H](Cc2ccccc2)C(=O)N1)C(C)C)C(=O)N[C@@H](Cc1c[nH]c2ccccc12)C(=O)O`, for which the Ki (in general, a dissociation constant, usually derived from enzyme kinetics or from competition with a known ligand) on Endothelin-1 receptor [2] was 4200 nM; on Endothelin-1 receptor [3], above 5000 nM; in test [4], 0.023 nM; in test [5] it was 0.016 nM.
In the case of `CC(C)C[C@H](NC(=O)C1CCCCC1)C(=O)N(C)[C@H](Cc1c[nH]c2ccccc12)C(=O)N[C@H](Cc1ccccn1)C(=O)O.Cl`, the IC50 in test [6] is 230000 nM; at Endothelin-1 receptor [1], 2300 nM.
`CC[C@@H](C)[C@@H](NC(=O)[C@@H](NC(=O)[C@H](CC(=O)O)NC(=O)[C@H](CC(C)C)NC(=O)[C@H](Cc1c[nH]cn1)NC(C)=O)[C@@H](C)CC)C(=O)N[C@@H](Cc1c[nH]c2ccccc12)C(=O)O` (Ac-HLDI[dI]W-OH) came in with an IC50 in the test filed under Rattus norvegicus below 50000 nM.
The same measure, in the same setting: to `CC[C@H](C)[C@H](NC(=O)[C@H](CC(=O)O)NC(=O)[C@H](CC(C)C)NC(=O)[C@@H](Cc1c[nH]cn1)NC(C)=O)C(=O)N[C@H](C(=O)N[C@@H](Cc1c[nH]c2ccccc12)C(=O)O)[C@@H](C)CC` (Ac-[dH]LDIIW-OH) belongs 1400 nM.
As to `CC[C@H](C)[C@H](NC(=O)[C@@H](NC(=O)[C@H](CC(=O)O)NC(=O)[C@H](CCC(N)=O)NC(=O)[C@H](Cc1cnc[nH]1)NC(=O)[C@@H]1CSSC[C@H](N)C(=O)N[C@@H](CO)C(=O)N[C@H]2CSSC[C@H](NC(=O)[C@H](CCC(=O)O)NC(=O)[C@H](CCCCN)NC(=O)[C@H](CC(=O)O)NC(=O)[C@H]([C@@H](C)O)NC(=O)[C@H](CCSC)NC(=O)[C@H](CC(=O)O)NC(=O)[C@H](CCCCN)NC2=O)C(=O)N[C@@H](CC(C)C)C(=O)N[C@@H](Cc2ccc(O)cc2)C(=O)N[C@@H](Cc2ccccc2)C(=O)N1)C(C)C)C(=O)N[C@@H](Cc1c[nH]c2ccccc12)C(=O)O` (H-CSCKDMTDKECLYFCHQDVIW-OH; disulfide 1-15, 3-11), the Ki on Endothelin-1 receptor [2] was found to be 0.087 nM; on Endothelin-1 receptor [3], 0.24 nM; in test [4] it was 0.012 nM; in test [5] it was 0.013 nM.
At Endothelin-1 receptor [7], `CC(C)C[C@@H]1NC(=O)[C@@H](C(C)C)NC(=O)[C@H](C)NC(=O)[C@@H](CCC(=O)O)NC(=O)[C@@H](Cc2c[nH]c3ccccc23)NC1=O` (single isomer, unassigned) showed an IC50 of 1400 nM.
Same read-out and setting: to `CC(C)C[C@@H]1NC(=O)[C@@H](C(C)C)NC(=O)[C@@H]2CCCN2C(=O)[C@@H](CC(=O)O)NC(=O)[C@@H](Cc2c[nH]c3ccccc23)NC1=O` [BQ-123] (cyclo(L[dW][dD]P[dV])) belongs 22000 nM.
For the molecule `CC[C@H](C)[C@H](NC(=O)[C@H](CC(=O)O)NC(=O)[C@H](CC(C)C)NC(=O)[C@H](Cc1c[nH]cn1)NC(=O)[C@@H]1CSSC[C@H](N)C(=O)N[C@@H]([C@@H](C)O)C(=O)N[C@H]2CSSC[C@H](NC(=O)[C@H](CCC(=O)O)NC(=O)[C@H](CCCCN)NC(=O)[C@H](CC(=O)O)NC(=O)[C@H](CCCCN)NC(=O)[C@H](Cc3ccc(O)cc3)NC(=O)[C@H]([C@@H](C)O)NC(=O)[C@H](Cc3ccccc3)NC2=O)C(=O)N[C@@H](C(C)C)C(=O)N[C@@H](Cc2ccc(O)cc2)C(=O)N[C@@H](Cc2ccc(O)cc2)C(=O)N1)C(=O)N[C@H](C(=O)N[C@@H](Cc1c[nH]c2ccccc12)C(=O)O)[C@@H](C)CC` [ENDOTHELIN 3], the Ki is 1.6 nM at Endothelin-1 receptor [2], 2.5 nM at Endothelin-1 receptor [3], 0.036 nM in test [4] and 0.021 nM in test [5].
Consider Ac-HLDIIW-OH, for which, in the test filed under Rattus norvegicus, the IC50 is below 50000 nM.
The same measure, in the same setting: then H-HLDIIW-OH, with below 50000 nM.

For the origin of these results see ChEMBL document CHEMBL1125446 (J Med Chem, 1992).
